From US20230265059A1, “SOLID STATE FORMS OF 6-CARBOXY-2-(3, 5-DICHLOROPHENYL)-BENZOXAZOLE OF FORMULA-I AND PHARMACEUTICALLY ACCEPTABLE SALTS THEREOF” (NURAY CHEMICALS PRIVATE LIMITED, priority 2020, published 2023) come the findings set out here.

The nature of this series: Drying of the hydrate form to remove water. Conditions: hydrate form having moisture content about 6.64%; drying at 55° C. temperature for 24 hours. The class given is physicochemical. The text has this: The hydrate form of 6-carboxy-2-(3,5-dichlorophenyl)-benzoxazole meglumine of Formula-IA according to the present disclosure having moisture content in the range of about 3.5% to about 9% preferably about 5 to 7%. The hydrate form of 6-carboxy-2-(3,5-dichlorophenyl)-benzoxazole meglumine salt of Formula-IA having moisture up to 15 to 20% but the only 5 to 7% water is present in crystal lattice and the excess water molecule is present in surface of the Tafamidis meglumine crystal. […] The hydrate form of 6-carboxy-2-(3,5-dichlorophenyl)-benzoxazole meglumine salt of Formula-IA having moisture content about 6.64% and moisture content about 15% are resulting the same PXRD diffractogram. This confirms the water molecules up to moisture content about 6% is present in crystal lattice and the excess water is present in surface of the crystal. In an another embodiment, the present disclosure, the hydrate form of 6-carboxy-2-(3,5-dichlorophenyl)-benzoxazole meglumine having DSC as depicted in FIG. 1 and having TGA as depicted in FIG. 2.

Turning to `O=C(O)c1ccc2nc(-c3cc(Cl)cc(Cl)c3)oc2c1` [6-carboxy-2-(3,5-dichlorophenyl)-benzoxazole meglumine], the “water content after drying” value is “not considerably reduced”.
